Data published in article PMC3898987 (Bioorganic & Medicinal Chemistry, 2013).
Numbering of substitutions follows the chain as printed.

How the values were obtained:
[1] = target: T1, 5-HT3AB receptor, 5-HT3B subunit Y143A (Homo sapiens, UniProt O95264+P46098, Y136A); experiment: radioligand saturation binding, transfected HEK293 membranes; conditions: [3H]-palonosetron saturation, 5-HT3AB with 5-HT3B Y143A, 4 °C, 24 h
T1 sequence (P46098 24-478): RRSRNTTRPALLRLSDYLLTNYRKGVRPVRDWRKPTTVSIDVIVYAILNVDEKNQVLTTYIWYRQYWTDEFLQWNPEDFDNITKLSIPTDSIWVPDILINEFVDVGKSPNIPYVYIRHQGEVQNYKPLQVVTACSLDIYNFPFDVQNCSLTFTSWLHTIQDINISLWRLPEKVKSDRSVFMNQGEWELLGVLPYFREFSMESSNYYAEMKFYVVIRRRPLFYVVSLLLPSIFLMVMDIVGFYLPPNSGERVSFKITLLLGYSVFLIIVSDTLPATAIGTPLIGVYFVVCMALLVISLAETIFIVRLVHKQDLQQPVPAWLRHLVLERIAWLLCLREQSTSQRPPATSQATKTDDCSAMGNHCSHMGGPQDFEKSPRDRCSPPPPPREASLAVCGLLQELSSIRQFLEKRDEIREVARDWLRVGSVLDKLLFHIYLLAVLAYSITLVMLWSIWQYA
T1 sequence (O95264 22-441 Y136A): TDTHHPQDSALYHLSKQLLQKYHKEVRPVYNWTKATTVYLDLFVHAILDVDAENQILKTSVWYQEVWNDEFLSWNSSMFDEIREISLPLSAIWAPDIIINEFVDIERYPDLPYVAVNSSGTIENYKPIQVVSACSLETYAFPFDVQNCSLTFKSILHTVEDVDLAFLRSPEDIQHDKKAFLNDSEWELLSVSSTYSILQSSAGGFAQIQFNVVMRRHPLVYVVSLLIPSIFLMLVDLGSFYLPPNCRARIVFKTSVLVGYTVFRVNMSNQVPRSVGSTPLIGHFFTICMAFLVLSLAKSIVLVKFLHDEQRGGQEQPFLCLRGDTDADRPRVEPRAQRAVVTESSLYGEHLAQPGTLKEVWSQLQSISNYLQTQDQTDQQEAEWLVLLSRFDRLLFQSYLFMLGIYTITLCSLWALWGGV
Experimental: (§1) Human embryonic kidney (HEK) 293 cells were cultured on 90 mm tissue culture plates at 37 °C and 7% CO2 in a humidified atmosphere. They were grown in DMEM:F12 (Dulbecco’s Modified Eagle’s Medium/Nutrient Mix F12 (1:1)) with GlutaMAX I™ containing 10% fetal calf serum and passaged when confluent. For radioligand binding studies, cells in 90 mm dishes were transfected at 60–70% confluency using polyethyleneimine and incubated for 3–4 days before use. For FlexStation assays, transfected cells were plated on 96-well plates and incubated 1–2 days before assay. […]
(§2) Eight-point binding assays were performed to produce saturation binding curves. […] Radioactive counts were measured using a Beckman LS6000SC liquid scintillation counter (Fullerton, California, USA).
(§3) Data were analyzed by iterative curve fitting using GraphPad Prism v5 (San Diego, CA) according to the following equation: B=Bmax[L]^n/kdn+[L]^n where B is the amount of bound radioligand, Bmax is the maximum specific binding at equilibrium, [L] is the concentration of radioligand, Kd is the equilibrium dissociation constant of the radioligand, and n is the Hill coefficient.

[2] = target: T2, 5-HT3AB receptor, 5-HT3B subunit I183A (Homo sapiens, UniProt O95264+P46098, I176A); experiment: cell-based
T2 sequence (P46098 24-478): T1 sequence (P46098 24-478)
T2 sequence (O95264 22-441 I176A): T1 sequence (O95264 22-441 Y136A) with A115Y, I155A
Experimental: For FlexStation assays, transfected cells were plated on 96-well plates and incubated 1–2 days before assay.
Fluorometric studies were undertaken using a FlexStation® (Molecular Devices, Sunnyvale, CA, USA) as previously described.[11]
Fluorescence was measured every 2 s for 200 s. […] Concentration–response and inhibition curves were obtained for each mutant, and the fluorescence values were normalized to the maximal response.

[3] = target: T3, 5-HT3AB receptor, 5-HT3B subunit E170A (Homo sapiens, UniProt P46098); experiment: biochemical; assay type: binding; conditions: [3H]-palonosetron saturation, 5-HT3AB with 5-HT3B E170A, 4 °C, 24 h
T3 construct: variant as stated: E170A
T3 sequence (P46098 24-478): T1 sequence (P46098 24-478)
T3 sequence (O95264 22-441 partner): T1 sequence (O95264 22-441 Y136A) with A115Y
Experimental: as §1, §2, §3

[4] = target: T4, 5-HT3AB receptor, 5-HT3B subunit H73A (Homo sapiens, UniProt O95264+P46098, H66A); experiment: radioligand saturation binding, transfected HEK293 membranes; conditions: [3H]-palonosetron saturation, 5-HT3AB with 5-HT3B H73A, 4 °C, 24 h
T4 sequence (P46098 24-478): T1 sequence (P46098 24-478)
T4 sequence (O95264 22-441 H66A): T1 sequence (O95264 22-441 Y136A) with H45A, A115Y
Experimental: as §1, §2, §3

[5] = target: T5, 5-HT3A receptor F130A (Homo sapiens, UniProt P46098, F125A); experiment: as above; conditions: [3H]-palonosetron saturation, 5-HT3A F130A, 4 °C, 24 h
T5 sequence (P46098 24-478 F125A): T1 sequence (P46098 24-478) with F102A
Experimental: as §1, §2, §3

O=C1c2cccc3c2[C@H](CCC3)CN1[C@@H]1CN2CCC1CC2 [Palonosetron]
Kd [1]: 0.18 ± 0.04 nM | IC50 [2]: 0.34 ± 0.08 nM | Kd [3]: 0.21 ± 0.03 nM | Kd [4]: 0.14 ± 0.02 nM | Kd [5]: 0.67 ± 0.12 nM
